Like-named read-outs stand apart in the source and are kept apart here. Square brackets hold non-standard residues; d marks the D form. Peptide text beside a SMILES is read from it.

Series [1] concerns the target T1, ETA receptor (Homo sapiens, UniProt P25101). Description: cell-based.
The target in series [2] is T2, ETA receptor variant R326Q (Homo sapiens, UniProt P25101, R326Q). Description: cell-based.
Series [3] concerns the target T2, ETA receptor variant R326Q.
The target in series [4] is T3, ETA receptor variant I355A (Homo sapiens, UniProt P25101, I355A). Description: cell-based.
T3 sequence (P25101 21-427 I355A): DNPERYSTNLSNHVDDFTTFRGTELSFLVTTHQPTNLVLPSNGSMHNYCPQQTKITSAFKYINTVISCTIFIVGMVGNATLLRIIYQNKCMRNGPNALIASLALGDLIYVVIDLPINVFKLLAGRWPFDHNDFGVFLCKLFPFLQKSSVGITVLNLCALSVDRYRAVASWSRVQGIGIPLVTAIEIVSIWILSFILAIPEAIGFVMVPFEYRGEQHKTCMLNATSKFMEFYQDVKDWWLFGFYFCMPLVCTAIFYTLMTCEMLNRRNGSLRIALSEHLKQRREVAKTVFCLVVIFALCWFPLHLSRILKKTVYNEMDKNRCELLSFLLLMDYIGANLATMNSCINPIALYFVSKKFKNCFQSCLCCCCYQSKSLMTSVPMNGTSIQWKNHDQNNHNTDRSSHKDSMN
Series [5] concerns the target T4, wildtype ETA receptor (Homo sapiens, UniProt P25101). Description: cell-based.
Series [6] addresses T4, wildtype ETA receptor.
In series [7] the target is T5, ETA receptor variant L322A (Homo sapiens, UniProt P25101, L322A). Description: cell-based.
T5 sequence (P25101 21-427 L322A): as the sequence (P25101 21-427 I355A) above, with L302A, A335I counted along it
Series [8] concerns the target T5, ETA receptor variant L322A.
Series [9] deals with T3, ETA receptor variant I355A.
For series [10], the target named is T1, ETA receptor. To be noted: cited from earlier work; for ETA receptor occupancy half-life (t1/2): PASMC.
Series [11] concerns the target T6, ETA receptor variant Q165A (Homo sapiens, UniProt P25101, Q165A). Put plainly: cell-based.
Series [12] deals with T7, ETA receptor variant K329M (Homo sapiens, UniProt P25101, K329M). Description: cell-based.
T7 sequence (P25101 21-427 K329M): as the sequence (P25101 21-427 I355A) above, with K309M, A335I counted along it
Series [13] concerns the target T8, ETA receptor variant D351N (Homo sapiens, UniProt P25101, D351N). Put plainly: cell-based.
The target of series [14] is T8, ETA receptor variant D351N.
In series [15] the target is T6, ETA receptor variant Q165A.
For series [16] the following is noted: cited from earlier work.
The target in series [17] is T7, ETA receptor variant K329M.
The conditions of series [18]: cited from earlier work. This is another data set of the same source.
In series [19] the target is T1, ETA receptor. Conditions: PASMC, 5 µM ET-1, 20 min stimulation, maximal ERA concentration 1 µM, arithmetic means, normalized to macitentan analogs 1 or 8 (100%).
The mark [20] stands for this setting: pKa1, no method or reference printed.
Setting [21] is: pKa2, no method or reference printed.

T2 sequence (P25101 21-427 R326Q): as the sequence (P25101 21-427 I355A) above, with R306Q, A335I counted along it
T8 sequence (P25101 21-427 D351N): as the sequence (P25101 21-427 I355A) above, with D331N, A335I counted along it
T6 sequence (P25101 21-427 Q165A): as the sequence (P25101 21-427 I355A) above, with Q145A, A335I counted along it
T1 sequence (P25101 21-427): as the sequence (P25101 21-427 I355A) above, with A335I counted along it
T4 sequence (P25101 21-427): as the sequence (P25101 21-427 I355A) above, with A335I counted along it

Broadly, the IC50 is the concentration that gives 50% inhibition. Usually pKa stands for the pH at which an ionisable group is half protonated. For `COc1ccccc1Oc1c(NS(=O)(=O)c2ccc(C)cn2)nc(-c2ccnc(-c3nnn[nH]3)c2)nc1OCCO` [clazosentan], the IC50 on ETA receptor [1] was determined as 3.3e-11 M; in series [2], 2.2 nM; in series [4], 2.7 nM; at wildtype ETA receptor [5], 0.085 nM; in [7], 0.1 nM. The “IC50 shift versus wildtype (fold)” value was found to be 26 fold in [3], 1 fold on wildtype ETA receptor [6], 1.2 fold in series [8] and 32 fold in [9]. Besides, the pKa in “physchem” (setting [20]) was determined as 4.5; in “physchem” (setting [21]), 3.3.
With `CCCNS(=O)(=O)Nc1ncnc(OCCOc2ccc(Br)cc2)c1-c1ccc(Br)cc1` [macitentan analog 10], the midpoint of inhibition against ETA receptor [1], the IC50, lay at 4.31e-07 M.
`CCNS(=O)(=O)Nc1ncnc(OCCOc2ncc(Br)cn2)c1-c1ccc(Br)cc1` [macitentan analog 2]: the IC50 at ETA receptor [1] was found to be 5.1e-10 M; in series [2] it was 34 nM; in series [4], 3.9 nM; at wildtype ETA receptor [5], 4.8 nM; in series [7], 1090 nM. The “IC50 shift versus wildtype (fold)” value is on record as 7.1 fold in series [3], 1 fold on wildtype ETA receptor [6], 228 fold in [8] and 0.8 fold in series [9].
For `COc1ccccc1Oc1c(NS(=O)(=O)c2ccc(C(C)C)cn2)nc(-c2ccnc(-c3nnn[nH]3)c2)nc1OCCO` [tezosentan], the IC50 at ETA receptor [1] is 5.2e-11 M; in series [2], 13 nM; in series [4], 14 nM; against wildtype ETA receptor [5], 0.26 nM; in [7] it was 0.53 nM. For the same compound, the “IC50 shift versus wildtype (fold)” value came to 50 fold in series [3], 1 fold on wildtype ETA receptor [6], 2.0 fold in [8] and 54 fold in series [9]. The pKa in “physchem” (setting [20]) was found to be 4.4; in “physchem” (setting [21]), 4.1.
As for `CCCNS(=O)(=O)Nc1ncnc(OCCCOc2ncc(Br)cn2)c1-c1ccc(Br)cc1` [macitentan analog 11], on ETA receptor [1], the IC50 was determined as 3.5e-08 M.
In general, logD refers to lipophilicity at a set pH, counting ionised and neutral species. For the compound `COC(c1ccccc1)(c1ccccc1)[C@H](Oc1nc(C)cc(C)n1)C(=O)O` [ambrisentan], the IC50 was found to be 4.4e-10 M against ETA receptor [1]; 887 nM in series [2]; 3160 nM in [11]; 0.58 nM in series [12]; 8.1 nM in [4]; 2.8 nM on wildtype ETA receptor [5]. Also, the IC50 in [13] came out at 4.5 nM; in series [7] it was 41 nM. Moreover, at ETA receptor [10], the “ETA receptor occupancy half-life (t1/2)” value was 1 min. Moreover, the “IC50 shift versus wildtype (fold)” value in series [3] was 317 fold; on wildtype ETA receptor [6], 1.0 fold; in series [14], 1.6 fold; in series [15], 1129 fold; in series [8], 15 fold; in [9], 2.9 fold. Further, the “IC50 shift versus wildtype (fold)” value in series [17] was 0.2 fold. For the same compound, the pKa in [16] was 3.5. The logD in series [18] is listed as −0.4.
`CCS(=O)(=O)Nc1ncnc(OCCOc2ncc(Br)cn2)c1-c1ccc(Br)cc1` [macitentan analog 4] showed an IC50 against ETA receptor [1] of 1.2e-09 M.
As to `CCCS(=O)(=O)Nc1ncnc(OCCOc2ncc(Br)cn2)c1-c1ccc(Br)cc1` [macitentan analog 5], the half-inhibitory concentration (IC50) against ETA receptor [1] came out at 3.8e-10 M.
`CC(C)C[C@@H]1NC(=O)[C@@H](C(C)C)NC(=O)[C@@H]2CCCN2C(=O)[C@@H](CC(=O)O)NC(=O)[C@@H](Cc2c[nH]c3ccccc23)NC1=O` [BQ123] (cyclo(L[dW][dD]P[dV])): the IC50 on ETA receptor [1] (log IC50 (M), calcium flux, PASMC, 4 nM–[…] nM ET-1 (EC80)) is 1.26e-09 M.
Turning to `CCCNS(=O)(=O)Nc1ncnc(OCCOc2ncc(Br)cn2)c1-c1ccc(Br)cc1` [macitentan, N-[5-(4-bromophenyl)-6-[2-[(5-bromo-2-pyrimidinyl)oxy]ethoxy]-4-pyrimidinyl]-N′-propylsulfamide], the IC50 against ETA receptor [1] is 1.7e-10 M; in series [2], 7.6 nM; in series [11], 209 nM; in series [12], 0.58 nM; in series [4], 1.1 nM; against wildtype ETA receptor [5], 1.2 nM. Besides, the values for the IC50 in [13] and in [7] were 1.5 nM and 178 nM, respectively. The “ETA receptor occupancy half-life (t1/2)” value on ETA receptor [10] was about 17 min. The “increase of receptor occupancy half-life compared to ambrisentan and bosentan” value on ETA receptor [10] (human primary PASMC) is about 20 fold. Besides, the “IC50 shift versus wildtype (fold)” value in [3] is reported as 6.3 fold; on wildtype ETA receptor [6], 1.0 fold; in series [14], 1.2 fold; in [15], 174 fold; in series [8], 148 fold; in series [9] it was 0.9 fold. The “IC50 shift versus wildtype (fold)” value in [17] came to 0.5 fold. Further, the “Insurmountability (%)” value on ETA receptor [19] is given as 64%. Further, the logD in [18] is 2.9.
In turn, `CCCNS(=O)(=O)Nc1ncnc(OCCOc2ncc(I)cn2)c1-c1ccc(Br)cc1` [macitentan analog 8] returned an IC50 against ETA receptor [1] of 6.5e-11 M.
`COc1ccccc1Oc1c(NS(=O)(=O)c2ccc(C(C)(C)C)cc2)nc(-c2ncccn2)nc1OCCO` [bosentan]: the pKa in [16] is 5.1. In addition, on ETA receptor [19], the “Insurmountability (%)” value is 0%. For the same compound, the logD in series [18] is listed as 1.3.
For the compound `O=S(=O)(NCc1ccccc1)Nc1ncnc(OCCOc2ncc(Br)cn2)c1-c1ccc(Br)cc1` [macitentan analog 3], on ETA receptor [1], it took 8.5e-11 M to reach half-maximal inhibition (IC50).
On to `CCCNS(=O)(=O)Nc1ncnc(OCCOc2ncc(Br)cn2)c1-c1ccc(Cl)cc1` [macitentan analog 9], for which the IC50 is 4.7e-10 M against ETA receptor [1]; 46 nM in [2]; 8.6 nM in series [4]; 14 nM at wildtype ETA receptor [5]; 1900 nM in series [7]. Moreover, the “IC50 shift versus wildtype (fold)” value came to 3.3 fold in series [3], 1 fold at wildtype ETA receptor [6], 136 fold in series [8] and 0.6 fold in [9].
In the case of `CCCNS(=O)(=O)Nc1ncnc(OCCOc2ncc(OC)cn2)c1-c1ccc(Br)cc1` [macitentan analog 7], the concentration for half-maximal inhibition (IC50) worked out at 3.9e-09 M on ETA receptor [1]; 268 nM in [2]; 45 nM in [4]; 41 nM against wildtype ETA receptor [5]; 2690 nM in [7]. For the same compound, the “IC50 shift versus wildtype (fold)” value is 6.5 fold in [3], 1 fold on wildtype ETA receptor [6], 66 fold in series [8] and 1.1 fold in [9].
Take `CCCCS(=O)(=O)Nc1ncnc(OCCOc2ncc(Br)cn2)c1-c1ccc(Br)cc1` [macitentan analog 6]: the IC50 against ETA receptor [1] was found to be 6.2e-10 M.
`CCCCNS(=O)(=O)Nc1ncnc(OCCOc2ncc(Br)cn2)c1-c1ccc(Br)cc1` [macitentan analog 1]: the IC50 on ETA receptor [1] was determined as 9.3e-11 M; in series [2], 1.2 nM; in [4], 0.047 nM; on wildtype ETA receptor [5], 0.17 nM; in series [7], 32 nM. Also, the “IC50 shift versus wildtype (fold)” value is listed as 7.1 fold in series [3], 1 fold at wildtype ETA receptor [6], 188 fold in series [8] and 0.3 fold in series [9].
In the case of `CCCNS(=O)(=O)Nc1ncnc(OCCCCOc2ncc(Br)cn2)c1-c1ccc(Br)cc1` [macitentan analog 12], on ETA receptor [1], inhibition was half-maximal at 2.55e-07 M (IC50).

Source of the values: paper PMC4166607, “Distinct ETA Receptor Binding Mode of Macitentan As Determined by Site Directed Mutagenesis” (PLoS ONE, 2014).
